According to patent publication US20230085307A1, “PYRIDAZINONE COMPOUND AND HERBICIDE” (NISSAN CHEMICAL CORPORATION, priority 2019, published 2023):

Assays:
[1] = tested on: barnyard grass; test: Test Example 3: herbicidal effect by foliage application, Wagner pot (Table 18, symbol H); type: in vivo, barnyard grass (Echinochloa crus-galli); conditions: amount of applied herbicide 320 g/ha
How it was run: (§1)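 Plants were sown in alluvial soil held under 0.1–0.5 cm standing water and grown 14 days in a greenhouse at 25–30 °C. An emulsifiable formulation, water-diluted to the set dose, was then sprayed onto the foliage, and effects were scored three weeks later using previously defined criteria.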

[2] = tested on: Chinese sprangletop; test: Test Example 3: herbicidal effect by foliage application, Wagner pot (Table 18, symbol D); type: in vivo, chinese sprangletop (Leptochloa chinensis); conditions: amount of applied herbicide 320 g/ha
How it was run: as §1

[3] = tested on: rice flat sedge; test: Test Example 3: herbicidal effect by foliage application, Wagner pot (Table 18, symbol E); type: in vivo, rice flat sedge (Cyperus iria); conditions: amount of applied herbicide 320 g/ha
How it was run: as §1

[4] = tested on: southern crabgrass; test: Test Example 4: herbicidal effect by soil treatment (Table 19, symbol F); type: in vivo, southern crabgrass (Digitaria ciliaris); conditions: amount of applied herbicide 320 g/ha
How it was run: (§2)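 In this soil treatment, the formulated compound reached the seeds only through the soil: seeds were buried about 1.5 cm deep in sterilized diluvial soil, then the diluted emulsion was sprayed over the surface. After three weeks at 25° C. to 30° C. in a greenhouse, effects were graded on criteria from an earlier test.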

[5] = tested on: green foxtail; test: Test Example 4: herbicidal effect by soil treatment (Table 19, symbol G); type: in vivo, green foxtail (Setaria viridis); conditions: amount of applied herbicide 320 g/ha
How it was run: as §2

[6] = tested on: barnyard grass; test: Test Example 4: herbicidal effect by soil treatment (Table 19, symbol H); type: in vivo, barnyard grass (Echinochloa crus-galli); conditions: amount of applied herbicide 320 g/ha
How it was run: as §2

[7] = tested on: wild oat; test: Test Example 4: herbicidal effect by soil treatment (Table 19, symbol I); type: in vivo, wild oat (Avena fatua); conditions: amount of applied herbicide 320 g/ha
Text: (§3) [Test Example 4] Herbicidal Effect Test by Soil Treatment
(§4) Sterilized diluvial soil was placed in a plastic box having a length of 21 cm, a width of 13 cm, and a depth of 7 cm. The seeds of each of southern crabgrass, green foxtail, barnyard grass, wild oat, blackgrass, Italian ryegrass, windgrass, velvetleaf, redroot pigweed, lambsquarters, chickweed, false cleavers, persian speedwell, corn, soybean, rice, wheat, beet, and rapeseed were sowed in a spot-like manner and covered with the soil having a thickness of about 1.5 cm. Subsequently, the emulsion agent of the compound of the present invention prepared according to Formulation Example 2 was diluted with water so as to achieve a predetermined herbicide amount, and the diluted emulsion agent was uniformly applied to the surface of the soil with a small-sized spray. The plastic box was placed in a greenhouse at 25° C. to 30° C. for growth of the plants. Three weeks after the herbicide application, the effect of the herbicide on each plant was evaluated according to the criteria of Test Example 1.

[8] = tested on: blackgrass; test: Test Example 4: herbicidal effect by soil treatment (Table 19, symbol J); type: in vivo, blackgrass (Alopecurus myosuroides); conditions: amount of applied herbicide 320 g/ha
Text: as §3, §4

[9] = tested on: Italian ryegrass; test: Test Example 4: herbicidal effect by soil treatment (Table 19, symbol K); type: in vivo, Italian ryegrass (Lolium multiflorum); conditions: amount of applied herbicide 320 g/ha
Text: as §3, §4

[10] = tested on: windgrass; test: Test Example 4: herbicidal effect by soil treatment (Table 19, symbol L); type: in vivo, windgrass (Apera spica-venti); conditions: amount of applied herbicide 320 g/ha
How it was run: as §2

[11] = tested on: velvetleaf; test: Test Example 4: herbicidal effect by soil treatment (Table 19, symbol M); type: in vivo, velvetleaf (Abutilon theophrasti); conditions: amount of applied herbicide 320 g/ha
How it was run: as §2

[12] = tested on: redroot pigweed; test: Test Example 4: herbicidal effect by soil treatment (Table 19, symbol N); type: in vivo, redroot pigweed (Amaranthus retroflexus); conditions: amount of applied herbicide 320 g/ha
How it was run: as §2

[13] = tested on: lambsquarters; test: Test Example 4: herbicidal effect by soil treatment (Table 19, symbol O); type: in vivo, lambsquarters (Chenopodium album); conditions: amount of applied herbicide 320 g/ha
How it was run: as §2

[14] = tested on: chickweed; test: Test Example 4: herbicidal effect by soil treatment (Table 19, symbol P); type: in vivo, common chickweed (Stellaria media); conditions: amount of applied herbicide 320 g/ha
Text: as §3, §4

[15] = tested on: southern crabgrass; test: Test Example 5: herbicidal effect by foliage application, plastic box (Table 20, symbol F); type: in vivo, southern crabgrass (Digitaria ciliaris); conditions: foliage application, evaluated three weeks after application
How it was run: (§5)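 Plants were sown into sterilized diluvial soil under about 1.5 cm cover and kept in a greenhouse at 25° C. to 30° C. Fourteen days on, foliage received an even spray of the diluted emulsion. Herbicidal or crop effect was judged three weeks afterwards.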

[16] = tested on: green foxtail; test: Test Example 5: herbicidal effect by foliage application, plastic box (Table 20, symbol G); type: in vivo, green foxtail (Setaria viridis); conditions: foliage application, evaluated three weeks after application
How it was run: as §5

[17] = tested on: barnyard grass; test: Test Example 5: herbicidal effect by foliage application, plastic box (Table 20, symbol H); type: in vivo, barnyard grass (Echinochloa crus-galli); conditions: foliage application, evaluated three weeks after application
How it was run: as §5

[18] = tested on: wild oat; test: Test Example 5: herbicidal effect by foliage application, plastic box (Table 20, symbol I); type: in vivo, wild oat (Avena fatua); conditions: foliage application, evaluated three weeks after application
How it was run: as §5

[19] = tested on: blackgrass; test: Test Example 5: herbicidal effect by foliage application, plastic box (Table 20, symbol J); type: in vivo, blackgrass (Alopecurus myosuroides); conditions: foliage application, evaluated three weeks after application
How it was run: as §5

[20] = tested on: Italian ryegrass; test: Test Example 5: herbicidal effect by foliage application, plastic box (Table 20, symbol K); type: in vivo, Italian ryegrass (Lolium multiflorum); conditions: foliage application, evaluated three weeks after application
How it was run: as §5

[21] = tested on: windgrass; test: Test Example 5: herbicidal effect by foliage application, plastic box (Table 20, symbol L); type: in vivo, windgrass (Apera spica-venti); conditions: foliage application, evaluated three weeks after application
How it was run: as §5

[22] = tested on: velvetleaf; test: Test Example 5: herbicidal effect by foliage application, plastic box (Table 20, symbol M); type: in vivo, velvetleaf (Abutilon theophrasti); conditions: foliage application, evaluated three weeks after application
How it was run: as §5

[23] = tested on: redroot pigweed; test: Test Example 5: herbicidal effect by foliage application, plastic box (Table 20, symbol N); type: in vivo, redroot pigweed (Amaranthus retroflexus); conditions: foliage application, evaluated three weeks after application
How it was run: as §5

[24] = tested on: lambsquarters; test: Test Example 5: herbicidal effect by foliage application, plastic box (Table 20, symbol O); type: in vivo, lambsquarters (Chenopodium album); conditions: foliage application, evaluated three weeks after application
How it was run: as §5

[25] = tested on: chickweed; test: Test Example 5: herbicidal effect by foliage application, plastic box (Table 20, symbol P); type: in vivo, common chickweed (Stellaria media); conditions: foliage application, evaluated three weeks after application
How it was run: as §5

[26] = tested on: persian speedwell; test: Test Example 5: herbicidal effect by foliage application, plastic box (Table 20, symbol R); type: in vivo, Persian speedwell (Veronica persica); conditions: foliage application, evaluated three weeks after application
How it was run: as §5

COc1ccc(-c2sc3ccc(Cl)cc3c2-c2c(O)c(C)nn(C)c2=O)cc1C [2-119]
herbicidal effect on H: barnyard grass [1]: 3 (Herbicidal rate of 40% or more and less than 70%)
herbicidal effect on D: Chinese sprangletop [2]: 2 (Herbicidal rate of 20% or more and less than 40%)
herbicidal effect on E: rice flat sedge [3]: 3 (Herbicidal rate of 40% or more and less than 70%)
F: southern crabgrass, herbicidal effect rating [4]: 0 (Herbicidal rate of 5% or less (almost no effect))
G: green foxtail, herbicidal effect rating [5]: 0 (Herbicidal rate of 5% or less (almost no effect))
H: barnyard grass, herbicidal effect rating [6]: 0 (Herbicidal rate of 5% or less (almost no effect))
I: wild oat, herbicidal effect rating [7]: 0 (Herbicidal rate of 5% or less (almost no effect))
J: blackgrass, herbicidal effect rating [8]: 0 (Herbicidal rate of 5% or less (almost no effect))
K: Italian ryegrass, herbicidal effect rating [9]: 0 (Herbicidal rate of 5% or less (almost no effect))
L: windgrass, herbicidal effect rating [10]: 0 (Herbicidal rate of 5% or less (almost no effect))
M: velvetleaf, herbicidal effect rating [11]: 0 (Herbicidal rate of 5% or less (almost no effect))
N: redroot pigweed, herbicidal effect rating [12]: 0 (Herbicidal rate of 5% or less (almost no effect))
O: lambsquarters, herbicidal effect rating [13]: 2 (Herbicidal rate of 20% or more and less than 40%)
P: chickweed, herbicidal effect rating [14]: 0 (Herbicidal rate of 5% or less (almost no effect))
herbicidal effect on F: southern crabgrass ([15]; 320 g/ha): 0 (Herbicidal rate of 5% or less (almost no effect))
herbicidal effect on G: green foxtail ([16]; 320 g/ha): 0 (Herbicidal rate of 5% or less (almost no effect))
herbicidal effect on H: barnyard grass ([17]; 320 g/ha): 1 (Herbicidal rate of 5% or more and less than 20%)
herbicidal effect on I: wild oat ([18]; 320 g/ha): 0 (Herbicidal rate of 5% or less (almost no effect))
herbicidal effect on J: blackgrass ([19]; 320 g/ha): 3 (Herbicidal rate of 40% or more and less than 70%)
herbicidal effect on K: Italian ryegrass ([20]; 320 g/ha): 0 (Herbicidal rate of 5% or less (almost no effect))
herbicidal effect on L: windgrass ([21]; 320 g/ha): 0 (Herbicidal rate of 5% or less (almost no effect))
herbicidal effect on M: velvetleaf ([22]; 320 g/ha): 3 (Herbicidal rate of 40% or more and less than 70%)
herbicidal effect on N: redroot pigweed ([23]; 320 g/ha): 0 (Herbicidal rate of 5% or less (almost no effect))
herbicidal effect on O: lambsquarters ([24]; 320 g/ha): 3 (Herbicidal rate of 40% or more and less than 70%)
herbicidal effect on P: chickweed ([25]; 320 g/ha): 1 (Herbicidal rate of 5% or more and less than 20%)
herbicidal effect on R: persian speedwell ([26]; 320 g/ha): 3 (Herbicidal rate of 40% or more and less than 70%)

COCCSc1ccc(-c2sc3ccc(F)cc3c2-c2c(O)c(C)nn(C)c2=O)cc1 [2-265]
herbicidal effect on H: barnyard grass [1]: 5 (Herbicidal rate of 90% or more (almost completely withered))
herbicidal effect on D: Chinese sprangletop [2]: 4 (Herbicidal rate of 70% or more and less than 90%)
herbicidal effect on E: rice flat sedge [3]: 5 (Herbicidal rate of 90% or more (almost completely withered))
herbicidal effect on F: southern crabgrass [4]: 3 (Herbicidal rate of 40% or more and less than 70%)
herbicidal effect on G: green foxtail [5]: 4 (Herbicidal rate of 70% or more and less than 90%)
herbicidal effect on H: barnyard grass [6]: 2 (Herbicidal rate of 20% or more and less than 40%)
herbicidal effect on I: wild oat [7]: 0 (Herbicidal rate of 5% or less (almost no effect))
herbicidal effect on J: blackgrass [8]: 0 (Herbicidal rate of 5% or less (almost no effect))
herbicidal effect on K: Italian ryegrass [9]: 0 (Herbicidal rate of 5% or less (almost no effect))
herbicidal effect on L: windgrass [10]: 0 (Herbicidal rate of 5% or less (almost no effect))
herbicidal effect on M: velvetleaf [11]: 3 (Herbicidal rate of 40% or more and less than 70%)
herbicidal effect on N: redroot pigweed [12]: 5 (Herbicidal rate of 90% or more (almost completely withered))
herbicidal effect on O: lambsquarters [13]: 4 (Herbicidal rate of 70% or more and less than 90%)
herbicidal effect on P: chickweed [14]: 0 (Herbicidal rate of 5% or less (almost no effect))
F: southern crabgrass, herbicidal effect (criteria 0-5) ([15]; AAH 320 g/ha): 4 (Herbicidal rate of 70% or more and less than 90%)
G: green foxtail, herbicidal effect (criteria 0-5) ([16]; AAH 320 g/ha): 5 (Herbicidal rate of 90% or more (almost completely withered))
H: barnyard grass, herbicidal effect (criteria 0-5) ([17]; AAH 320 g/ha): 4 (Herbicidal rate of 70% or more and less than 90%)
I: wild oat, herbicidal effect (criteria 0-5) ([18]; AAH 320 g/ha): 3 (Herbicidal rate of 40% or more and less than 70%)
J: blackgrass, herbicidal effect (criteria 0-5) ([19]; AAH 320 g/ha): 0 (Herbicidal rate of 5% or less (almost no effect))
K: Italian ryegrass, herbicidal effect (criteria 0-5) ([20]; AAH 320 g/ha): 2 (Herbicidal rate of 20% or more and less than 40%)
L: windgrass, herbicidal effect (criteria 0-5) ([21]; AAH 320 g/ha): 0 (Herbicidal rate of 5% or less (almost no effect))
M: velvetleaf, herbicidal effect (criteria 0-5) ([22]; AAH 320 g/ha): 5 (Herbicidal rate of 90% or more (almost completely withered))
N: redroot pigweed, herbicidal effect (criteria 0-5) ([23]; AAH 320 g/ha): 5 (Herbicidal rate of 90% or more (almost completely withered))
O: lambsquarters, herbicidal effect (criteria 0-5) ([24]; AAH 320 g/ha): 4 (Herbicidal rate of 70% or more and less than 90%)
P: chickweed, herbicidal effect (criteria 0-5) ([25]; AAH 320 g/ha): 5 (Herbicidal rate of 90% or more (almost completely withered))
R: persian speedwell, herbicidal effect (criteria 0-5) ([26]; AAH 320 g/ha): 5 (Herbicidal rate of 90% or more (almost completely withered))
